Literature values as cited in patent US7109191B2, “Benzazepinone alpha vintegrin receptor antagonists” (Merck & Co., Inc., priority 2001, dated 2006).

Tested on: postmenopausal osteoporotic women
Details: after a median of 22 months of treatment

hPTH(1–34): human parathyroid hormone 1–34 fragment (SVSEIQLMHNLGKHLNSMERVEWLRKKLQDVHNF; Parathyroid hormone; UniProt P01270 32-65, looked up, fragment)
reduction in nonvertebral fractures: 54% | reduction in spine fractures: ≥ 65%
